The results in this text go back to patent US7754243B2, “Aqueous suspension of nanoscale drug particles from supercritical fluid processing” (Clemson University Research Foundation, priority 2004, dated 2010).

The nature of data set [1]: Statistical analysis of SEM images of nanoparticles in the product aqueous suspension. In kind it is physicochemical. The following applies: for average nanoparticle size: Ibuprofen. The protocol:
A system similar to that illustrated in FIG. 1 was utilized to form aqueous suspensions of Ibuprofen particles. Specifically, a solution (0.25 mg/mL) of Ibuprofen (available from Sigma-Aldrich Corporation) in liquid carbon dioxide (high-purity, SFC grade obtained from Air Products Corporation) was prepared in the syringe pump 10. The solution was pushed through the heating unit 14 to reach the desired supercritical temperature of 40° C. before reaching the expansion nozzle 16. The rapid expansion was carried out at a pre-expansion pressure of 200 bar through a 50 μm orifice into an aqueous solution. A specimen of the product suspension was prepared for SEM imaging by depositing a few drops of the dilute nanoparticle aqueous suspension onto a carbon tape, followed by drying under ambient condition and then coating with platinum before imaging. SEM images were obtained on a Hitachi S-4700 Field-Emission SEM system.

A short description of data set [2]: Stability of the product aqueous suspension against precipitation. It is filed as physicochemical. The following applies: for time until precipitation appeared in the suspension: receiving solution neat water. The protocol: A system similar to that illustrated in FIG. 1 was utilized to form aqueous suspensions of Ibuprofen particles. Specifically, a solution (0.25 mg/mL) of Ibuprofen (available from Sigma-Aldrich Corporation) in liquid carbon dioxide (high-purity, SFC grade obtained from Air Products Corporation) was prepared in the syringe pump 10. The solution was pushed through the heating unit 14 to reach the desired supercritical temperature of 40° C. before reaching the expansion nozzle 16. The rapid expansion was carried out at a pre-expansion pressure of 200 bar through a 50 μm orifice into an aqueous solution. FIG. 2A is an SEM analysis of the precipitate obtained when the receiving solution in the expansion chamber 18 was neat water.

Turning to `CC(C)Cc1ccc(C(C)C(=O)O)cc1` (centres unmarked) [Ibuprofen], the “change in nanoparticle size on increase of drug loading and PVP concentration” value in data set [1] (Ibuprofen loading 0.25 to 0.83 mg/mL, PVP concentration 0.5 to 3.3 mg/mL) is listed as “no significant changes”. For the same compound, the “average size in diameter” value was 40 nm in data set [1] (Ibuprofen nanoparticles, receiving solution aqueous PVP (Mw≈40,000), pre-expansion 40° C., 200 bar) and 25 nm in data set [1] (Ibuprofen nanoparticles, receiving solution aqueous SDS, 3.3 mg/mL). The average nanoparticle size is reported as 52 nm in data set [1] (PVP receiving solution, pre-expansion temperature 120° C.) and 30 nm in data set [1] (high-molecular weight PVP (Mw≈360,000)). Further, in data set [1] (PVP, drug/polymer weight ratio varied from 0.3 to 4 (Ibuprofen) or 0.3 to 2 (Naproxen)), the “change in average particle size on variation of drug/polymer weight ratio” value was “no significant changes”. In addition, the “stability of product suspension” value is “no sign of instability after several days” in data set [2] (receiving solution aqueous PVP (Mw≈40,000)) and “remained stable without precipitation” in data set [2] (receiving solution aqueous SDS, 3.3 mg/mL). Besides, the “time until precipitation appeared in the suspension” value in data set [2] was no more than 15 min.

As to `COc1ccc2cc([C@H](C)C(=O)O)ccc2c1` [Naproxen], the “average size in diameter” value in data set [1] (Naproxen nanoparticles, 2 wt % methanol co-solvent, receiving solution 0.5 mg/mL PVP (Mw≈40,000)) was found to be 64 nm. For the same compound, in data set [2], the “time until precipitation appeared in the suspension” value is no more than 15 min.
